The values that follow are results of earlier work, collected in US20170143675A1, “FORMULATIONS FOR TREATMENT OF HYPERTHYROIDISM” (DENDROPHARM GMBH, priority 2014, published 2017).

The test system of one data set is cats. Conditions: randomized trial.

Where two headings read alike, the source gives them in different places.

In the case of `Cn1ccnc1S` [methimazole, 2-mercapto-1-methylimidazole], the figures for the “cats with gastrointestinal side effects” value in the data set on cats (oral administration) and in the data set on cats (transdermal administration in PLO) were 24% and 4%, respectively. Further, the transdermal uptake entry (after a single dose in PLO) was “poor”. The “reduction of the serum T4 concentration” value (chronic transdermal administration in PLO) is given as “effective”.
